This note sets out measurements from US11845736B2, “Prodrugs of MDMA, MDA, and derivatives thereof” (EmpathBio, Inc., priority 2021, dated 2023).

The nature of data set [1]: Compound solubility in FaSSIF.
A short description of data set [2]: Compound mouse plasma stability.
Data set [3] in a line: Compound chemical stability PBS (pH 6.5).
Data set [4] is described as follows: Compound chemical stability SGF with pepsin.
Data set [5] in a line: Compound chemical stability SGF without pepsin.

Values after ≈ are worked out from the molar mass of the structure shown.

Usually solubility stands for the concentration that dissolves in the medium under given conditions. Low readings indicate little dissolved substance, high ones much dissolved substance. On to `CCOC(=O)N(C)C(C)Cc1ccc2c(c1)OCO2` (stereo not drawn) [Compound 1, ethyl(1-(benzo[d][1,3]dioxol-5-yl)propan-2-yl)(methyl)carbamate], for which the solubility in data set [1] is 309 µM (≈ 82 µg/mL). Further, the “% Remaining” value amounted to 100.00% in data set [2] (0 minutes); 108.51% in data set [2] (15 minutes); 87.67% in data set [2] (30 minutes); 98.49% in data set [2] (60 minutes); 89.31% in data set [2] (120 minutes); 100.00% in data set [3] (PBS pH 6.5, 0 minutes). Also, the “% Remaining” value was found to be 90.48% in data set [3] (PBS pH 6.5, 30 minutes); 90.36% in data set [3] (PBS pH 6.5, 60 minutes); 89.59% in data set [3] (PBS pH 6.5, 120 minutes); 90.28% in data set [3] (PBS pH 6.5, 240 minutes); 100.00% in data set [4] (0 minutes); 101.86% in data set [4] (30 minutes). Besides, the “% Remaining” value in data set [4] (60 minutes) amounted to 98.61%; in data set [4] (120 minutes), 103.31%; in data set [4] (240 minutes) it was 100.50%; in data set [5] (0 minutes), 100.00%; in data set [5] (30 minutes) it was 103.81%; in data set [5] (60 minutes) it was 101.90%. Also, the “% Remaining” value in data set [5] (120 minutes) worked out at 103.81%; in data set [5] (240 minutes), 104.29%.

In the case of `CCOC(=O)NC(C)Cc1ccc2c(c1)OCO2` (stereo not drawn) [Compound 2, ethyl(1-(benzo[d][1,3]dioxol-5-yl)propan-2-yl)carbamate], the concentration in solution in data set [1] (solubility) came to 313 µM (≈ 78.8 µg/mL). In addition, the “% Remaining” value amounted to 100.00% in data set [2] (0 minutes); 101.77% in data set [2] (15 minutes); 86.60% in data set [2] (30 minutes); 89.02% in data set [2] (60 minutes); 84.42% in data set [2] (120 minutes); 100.00% in data set [3] (PBS pH 6.5, 0 minutes). Moreover, the “% Remaining” value in data set [3] (PBS pH 6.5, 30 minutes) is listed as 89.05%; in data set [3] (PBS pH 6.5, 60 minutes) it was 87.87%; in data set [3] (PBS pH 6.5, 120 minutes) it was 91.21%; in data set [3] (PBS pH 6.5, 240 minutes), 88.66%; in data set [4] (0 minutes) it was 100.00%; in data set [4] (30 minutes) it was 100.95%. Also, the “% Remaining” value stood at 97.74% in data set [4] (60 minutes); 98.18% in data set [4] (120 minutes); 99.08% in data set [4] (240 minutes); 100.00% in data set [5] (0 minutes); 102.53% in data set [5] (30 minutes); 101.64% in data set [5] (60 minutes). In addition, the “% Remaining” value in data set [5] (120 minutes) came out at 90.45%; in data set [5] (240 minutes), 99.40%.

`CC(OC(=O)N(C)C(C)Cc1ccc2c(c1)OCO2)OC(=O)C(C)(C)C` (stereo not drawn) [Compound 3, 1-(((1-(benzo[d][1,3]dioxol-5-yl)propan-2-yl)(methyl)carbamoyl)oxy)ethyl pivalate] registered a solubility in data set [1] of 101 µM (≈ 37 µg/mL). Moreover, the “% Remaining” value worked out at 100% in data set [2] (0 minutes); 0.0% in data set [2] (15 minutes); 0.0% in data set [2] (30 minutes); 0.0% in data set [2] (60 minutes); 0.0% in data set [2] (120 minutes); 100.00% in data set [3] (PBS pH 6.5, 0 minutes). Moreover, the “% Remaining” value is reported as 103.45% in data set [3] (PBS pH 6.5, 30 minutes); 107.91% in data set [3] (PBS pH 6.5, 60 minutes); 105.56% in data set [3] (PBS pH 6.5, 120 minutes); 96.60% in data set [3] (PBS pH 6.5, 240 minutes); 100.00% in data set [4] (0 minutes); 106.44% in data set [4] (30 minutes). The “% Remaining” value in data set [4] (60 minutes) is listed as 108.51%; in data set [4] (120 minutes), 103.98%; in data set [4] (240 minutes), 106.17%; in data set [5] (0 minutes), 100.00%; in data set [5] (30 minutes) it was 97.82%; in data set [5] (60 minutes), 97.35%. Further, the “% Remaining” value in data set [5] (120 minutes) is 93.65%; in data set [5] (240 minutes) it was 94.12%.

Molecule `CC(Cc1ccc2c(c1)OCO2)N(C)C(=O)CN` (stereo not drawn) [Compound 4, 2-amino-N-(1-(benzo[d][1,3]dioxol-5-yl)propan-2-yl)-N-methylacetamide] yielded a solubility in data set [1] of 291 µM (≈ 72.9 µg/mL). In addition, the “% Remaining” value in data set [2] (0 minutes) was 100.00%; in data set [2] (15 minutes), 102.99%; in data set [2] (30 minutes) it was 83.50%; in data set [2] (60 minutes), 94.51%; in data set [2] (120 minutes), 87.42%; in data set [3] (PBS pH 6.5, 0 minutes), 100.00%. The “% Remaining” value was determined as 88.84% in data set [3] (PBS pH 6.5, 30 minutes); 92.54% in data set [3] (PBS pH 6.5, 60 minutes); 92.04% in data set [3] (PBS pH 6.5, 120 minutes); 92.48% in data set [3] (PBS pH 6.5, 240 minutes); 100.00% in data set [4] (0 minutes); 108.06% in data set [4] (30 minutes). In addition, the “% Remaining” value came to 98.50% in data set [4] (60 minutes); 106.18% in data set [4] (120 minutes); 103.88% in data set [4] (240 minutes); 100.00% in data set [5] (0 minutes); 94.49% in data set [5] (30 minutes); 96.72% in data set [5] (60 minutes). Moreover, the figures for the “% Remaining” value in data set [5] (120 minutes) and in data set [5] (240 minutes) were 96.67% and 96.46%, respectively.

`CC(Cc1ccc2c(c1)OCO2)NC(=O)CN` (stereo not drawn) [Compound 5, 2-amino-N-(1-(benzo[d][1,3]dioxol-5-yl)propan-2-yl)acetamide] showed a solubility in data set [1] of 304 µM (≈ 71.8 µg/mL). Further, the “% Remaining” value in data set [2] (0 minutes) turned out to be 100.00%; in data set [2] (15 minutes), 103.33%; in data set [2] (30 minutes) it was 87.64%; in data set [2] (60 minutes) it was 90.78%; in data set [2] (120 minutes), 83.06%; in data set [3] (PBS pH 6.5, 0 minutes), 100.00%. The “% Remaining” value in data set [3] (PBS pH 6.5, 30 minutes) is on record as 95.53%; in data set [3] (PBS pH 6.5, 60 minutes) it was 97.09%; in data set [3] (PBS pH 6.5, 120 minutes), 98.67%; in data set [3] (PBS pH 6.5, 240 minutes) it was 105.87%; in data set [4] (0 minutes), 100.00%; in data set [4] (30 minutes) it was 99.68%. Besides, the “% Remaining” value came out at 105.84% in data set [4] (60 minutes); 94.42% in data set [4] (120 minutes); 91.97% in data set [4] (240 minutes); 100.00% in data set [5] (0 minutes); 101.17% in data set [5] (30 minutes); 91.48% in data set [5] (60 minutes). Besides, the figures for the “% Remaining” value in data set [5] (120 minutes) and in data set [5] (240 minutes) were 95.49% and 100.41%, respectively.

Regarding `C[C@H](Cc1ccc2c(c1)OCO2)NC(=O)OC(C)(C)C` [Compound 6, tert-butyl(R)-(1-(benzo[d][1,3]dioxol-5-yl)propan-2-yl)carbamate], in data set [1], the solubility amounted to 175 µM (≈ 49 µg/mL). For the same molecule, the “% Remaining” value in data set [2] (0 minutes) is 100%; in data set [2] (15 minutes), 102%; in data set [2] (30 minutes) it was 106%; in data set [2] (60 minutes) it was 92%; in data set [2] (120 minutes) it was 95%; in data set [3] (PBS pH 6.5, 0 minutes), 100.00%. For the same molecule, the “% Remaining” value was 84.81% in data set [3] (PBS pH 6.5, 30 minutes); 93.60% in data set [3] (PBS pH 6.5, 60 minutes); 103.65% in data set [3] (PBS pH 6.5, 120 minutes); 91.66% in data set [3] (PBS pH 6.5, 240 minutes); 100.00% in data set [4] (0 minutes); 85.17% in data set [4] (30 minutes). The “% Remaining” value stood at 79.89% in data set [4] (60 minutes); 56.87% in data set [4] (120 minutes); 31.48% in data set [4] (240 minutes); 100.00% in data set [5] (0 minutes); 87.96% in data set [5] (30 minutes); 77.20% in data set [5] (60 minutes). The “% Remaining” value in data set [5] (120 minutes) is 57.49%; in data set [5] (240 minutes), 28.57%.

For the molecule `C[C@H](Cc1ccc2c(c1)OCO2)N(C)C(=O)OC(C)(C)C` [Compound 7, tert-butyl(R)-(1-(benzo[d][1,3]dioxol-5-yl)propan-2-yl)(methyl)carbamate], the concentration in solution in data set [1] (solubility) came to 257 µM (≈ 75.3 µg/mL). The “% Remaining” value in data set [2] (0 minutes) is on record as 100%; in data set [2] (15 minutes) it was 101%; in data set [2] (30 minutes), 92%; in data set [2] (60 minutes), 83%; in data set [2] (120 minutes), 92%; in data set [3] (PBS pH 6.5, 0 minutes), 100.00%. The “% Remaining” value in data set [3] (PBS pH 6.5, 30 minutes) was 94.54%; in data set [3] (PBS pH 6.5, 60 minutes), 105.49%; in data set [3] (PBS pH 6.5, 120 minutes), 105.72%; in data set [3] (PBS pH 6.5, 240 minutes), 102.75%; in data set [4] (0 minutes), 100.00%; in data set [4] (30 minutes), 74.97%. The “% Remaining” value in data set [4] (60 minutes) is 63.49%; in data set [4] (120 minutes), 56.42%; in data set [4] (240 minutes) it was 28.25%; in data set [5] (0 minutes), 100.00%; in data set [5] (30 minutes) it was 89.90%; in data set [5] (60 minutes), 73.62%. For the same molecule, the “% Remaining” value in data set [5] (120 minutes) is 61.79%; in data set [5] (240 minutes), 30.52%.

Molecule `Cc1oc(=O)oc1CN[C@H](C)Cc1ccc2c(c1)OCO2` [Compound 8, (R)-4-(((1-(benzo[d][1,3]dioxol-5-yl)propan-2-yl)amino)methyl)-5-methyl-1,3-dioxol-2-one] showed a solubility in data set [1] of 283 µM (≈ 82.4 µg/mL). In addition, the “% Remaining” value in data set [2] (0 minutes) is 100%; in data set [2] (15 minutes) it was 72%; in data set [2] (30 minutes), 54%; in data set [2] (60 minutes), 25%; in data set [2] (120 minutes), 6%; in data set [3] (PBS pH 6.5, 0 minutes), 100%. Also, the “% Remaining” value in data set [3] (PBS pH 6.5, 30 minutes) came out at 96%; in data set [3] (PBS pH 6.5, 60 minutes), 93%; in data set [3] (PBS pH 6.5, 120 minutes), 75%; in data set [3] (PBS pH 6.5, 240 minutes), 72%; in data set [4] (0 minutes) it was 100%; in data set [4] (30 minutes), 103%. Also, the “% Remaining” value in data set [4] (60 minutes) amounted to 98%; in data set [4] (120 minutes), 96%; in data set [4] (240 minutes), 92%; in data set [5] (0 minutes) it was 100%; in data set [5] (30 minutes), 97%; in data set [5] (60 minutes) it was 94%. The results for the “% Remaining” value in data set [5] (120 minutes) and in data set [5] (240 minutes) were 90% and 86%, respectively.
